# Source: PubChem BioAssay (NCI)
#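 96-well plates; 48 h exposure; 5 concentrations. Endpoints by linear interpolation between flanking doses. Not reached: highest tested concentration assigned. At the GI50, growth is halved. TGI marks complete inhibition of growth.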
# Columns and labels:
# Assay in all cases: growth of human tumour cells (NCI), 48 h
# 786-0 renal = tested on: 786-0 renal
# A498 renal = tested on: A498 renal
# A549 NSCLC = tested on: A549 NSCLC
# ACHN renal = tested on: ACHN renal
# BT-549 breast = tested on: BT-549 breast
# CAKI-1 renal = tested on: CAKI-1 renal
# CCRF-CEM leukemia = tested on: CCRF-CEM leukemia
# COLO 205 colon = tested on: COLO 205 colon
# DU-145 prostate = tested on: DU-145 prostate
# EKVX NSCLC = tested on: EKVX NSCLC
# HCC-2998 colon = tested on: HCC-2998 colon
# HCT-116 colon = tested on: HCT-116 colon
# HCT-15 colon = tested on: HCT-15 colon
# HL-60(TB) leukemia = tested on: HL-60(TB) leukemia
# HOP-62 NSCLC = tested on: HOP-62 NSCLC
# HOP-92 NSCLC = tested on: HOP-92 NSCLC
# HS 578T breast = tested on: HS 578T breast
# HT29 colon = tested on: HT29 colon
# IGROV1 ovarian = tested on: IGROV1 ovarian
# K-562 leukemia = tested on: K-562 leukemia
# KM12 colon = tested on: KM12 colon
# LOX IMVI melanoma = tested on: LOX IMVI melanoma
# M14 melanoma = tested on: M14 melanoma
# MALME-3M melanoma = tested on: MALME-3M melanoma
# MCF7 breast = tested on: MCF7 breast
# MDA-MB-231 breast = tested on: MDA-MB-231 breast
# MDA-MB-435 = tested on: MDA-MB-435
# MOLT-4 leukemia = tested on: MOLT-4 leukemia
# NCI-H226 lung = tested on: NCI-H226 lung
smiles,measurement,setting,value
CN1CCN(c2ccc(Nc3nc(NCCCNS(=O)(=O)c4ccc(F)cc4)c4sccc4n3)cc2)CC1,GI50,786-0 renal,15.6 µM
same,TGI,786-0 renal,34.4 µM
same,GI50,A498 renal,16.1 µM
same,TGI,A498 renal,32.4 µM
same,GI50,A549 NSCLC,21.2 µM
same,TGI,A549 NSCLC,97.9 µM
same,GI50,ACHN renal,17.1 µM
same,TGI,ACHN renal,40.2 µM
same,GI50,BT-549 breast,13.9 µM
same,TGI,BT-549 breast,31.4 µM
same,GI50,CAKI-1 renal,15.2 µM
same,TGI,CAKI-1 renal,28.4 µM
same,GI50,CCRF-CEM leukemia,22.2 µM
same,TGI,CCRF-CEM leukemia,> 100 µM
same,GI50,COLO 205 colon,14.2 µM
same,TGI,COLO 205 colon,32.2 µM
same,GI50,DU-145 prostate,17.4 µM
same,TGI,DU-145 prostate,43 µM
same,GI50,EKVX NSCLC,21 µM
same,TGI,EKVX NSCLC,73.8 µM
same,GI50,HCC-2998 colon,14.9 µM
same,TGI,HCC-2998 colon,30.8 µM
same,GI50,HCT-116 colon,5.35 µM
same,TGI,HCT-116 colon,28.5 µM
same,GI50,HCT-15 colon,4.6 µM
same,TGI,HCT-15 colon,20.1 µM
same,GI50,HL-60(TB) leukemia,19.8 µM
same,TGI,HL-60(TB) leukemia,45.4 µM
same,GI50,HOP-62 NSCLC,15.4 µM
same,TGI,HOP-62 NSCLC,32.8 µM
same,GI50,HOP-92 NSCLC,4.72 µM
same,TGI,HOP-92 NSCLC,26.1 µM
same,GI50,HS 578T breast,4.92 µM
same,TGI,HS 578T breast,25.4 µM
same,GI50,HT29 colon,5.18 µM
same,TGI,HT29 colon,25 µM
same,GI50,IGROV1 ovarian,12.9 µM
same,TGI,IGROV1 ovarian,28 µM
same,GI50,K-562 leukemia,2.82 µM
same,TGI,K-562 leukemia,> 100 µM
same,GI50,KM12 colon,16.9 µM
same,TGI,KM12 colon,56.4 µM
same,GI50,LOX IMVI melanoma,12 µM
same,TGI,LOX IMVI melanoma,25.6 µM
same,GI50,M14 melanoma,2.47 µM
same,TGI,M14 melanoma,7.33 µM
same,GI50,MALME-3M melanoma,12.1 µM
same,TGI,MALME-3M melanoma,24.4 µM
same,GI50,MCF7 breast,7.39 µM
same,TGI,MCF7 breast,20.2 µM
same,GI50,MDA-MB-231 breast,11 µM
same,TGI,MDA-MB-231 breast,27.3 µM
same,GI50,MDA-MB-435,14.3 µM
same,TGI,MDA-MB-435,27.4 µM
same,GI50,MOLT-4 leukemia,6.02 µM
same,TGI,MOLT-4 leukemia,43.1 µM
same,GI50,NCI-H226 lung,10.8 µM
